From patent US20240041842A1, “PHARMACEUTICAL COMPOSITION FOR INHIBITING CANCER METASTASIS” (INDUSTRY-ACADEMIC COOPERATION FOUNDATION, YONSEI UNIVERSITY, priority 2021, published 2024)

Experiments:
Assay type in all cases: cell-based, human
[1] = test system: KL cell lines; test: Matrigel invasion assay, KL cell lines; conditions: in two of the three KL cell lines; AMG-510 1 uM
Experimental: (§1) For the 2D invasion assay, the inserts were pre-coated with 300 μg/ml Matrigel (Coming, 354234). After staining with […] dye (Bio-Rad, 1450013), 1×10^5 live cells per 8-um-pore cell-culture insert (Costar. 3422) were seeded in 0.5% ACL medium. 10% ACL medium was added to the outside of the insert. In the case of lung cancer and pancreatic cancer cell lines, after inoculation in 1% RPMI medium, 20% RPMI medium was added to the outside of the insert. Plates were incubated for 24 hours at 37° C. After incubation, the insert was fixed with 3.7% PFA, washed, stained with 0.4% crystal violet, and the upper membrane was washed and dried.

[2] = test system: Snail; test: Western blot of Snail protein
Experimental: (§2) Cells were harvested, washed with PBS, and lysed on ice with RIPA buffer containing protease and phophatase inhibitor cocktail (GenDEPOT). After 15 minutes of incubation, the cell lysates were centrifuged at 15,000 rpm at 4° C. for 10 minutes. Protein concentration was measured by Bradford assay (Bio-rad, 500-0006). Equal amounts of total protein were placed on an SDS gel electrophoresis and transferred to a PVDF membrane (Bio-rad). The membrane was blocked with 5% skim milk for 1 hour at room temperature and incubated overnight at 4° C. with primary antibody in a buffer containing 0.1% Tween-20. Subsequently, the membrane was washed three times with Tween-PBS buffer and incubated for 1 hour at room temperature using a secondary antibody diluted in blocking buffer containing 0.1% Tween-20. Subsequently, the membrane was washed three times for 10 minutes each using Tween-TBS. Densitometry of Western blots was measured using ImageJ software.
[…] For autophagy activation, cells were'treated with 2 μM rapamycin (Selleckchem, S1039) for 5 hours. Modulation of intracellular ROS was performed with N-acetyl-cysteine (10 mM) (Sigma, A7250), hydrogen peroxide solution (100 μM to 200 μM) (Sigma, 216763), or CDDO-ME NRF2 activator (50 nM, 100 nM) (Sellckchem, S8078) for 4 to 24 hours. Intercellular calcium signal control was performed for 1 hour using BAPTA-AM (20 μM) (Sigma, A1076) or Calmidazolium Chloride (2.5 μM) (Sigma, C3930). […] For TFEB protein phosphorylation, tacrolimus (1 μM) (Selleckchem, S5003) was treated for 1 hour. […] During siRNA treatment, each siRNA was treated to a concentration of 40 to 50 nM and treated together with Lipofectamine RNAiMax (Thermo Fisher Scientific, 13778150) for transformation, and were used for experiments 48 to 72 hours later. For cDNA treatment, each cDNA was treated to a concentration of 1 to 2 μg in a 6-well plate and treated with Lipofectamine 2000 (Thermo Fisher Scientific, 11668019) for transformation, and were used for experiments 24 hours later.

[3] = test system: β-catenin; test: Western blot of β-catenin; conditions: HBEC-KL; CHIR99021 3 uM, 5 hours, in the presence of 50 uM CQ
Experimental: as §2, with “FIG. 5K illustrates the expression level of Snail protein after treatment with the GSK3β inhibitor CHIR99021 (3 uM, treatment for 5 hours) in the presence of 50 uM chloroquine (CQ) in the HBEC-KL cell line. Cells” for “Cells”

[4] = test system: Snail; test: Western blot of Snail protein; conditions: HBEC-KL
[5] = test system: Snail; test: Immunoprecipitation-immunoblot of phosphorylated/acetylated or K48 polyubiquitinated Snail in A549 cells; conditions: 25 uM C646 or 3 uM SAHA
Experimental: FIG. 9K illustrates the immunoprecipitation-immunoblot result of phosphorylated/acetylated or K48 polyubiquitinated Snail assay after transfection of wild-type Snail (pFLAG-Snail WT) or acetylation-defective Snail mutant (pFLAG-SnailK146R) into A549 cells and/or treatment with 25 uM C646.
FIG. 9L illustrates the immunoprecipitation-immunoblot results of the polyubiquitinated Snail assay after transfection of HA-ubiquitin and wild-type Snail (pFLAG-Snail WT) or acetylation-defective Snail mutant (pFLAG-SnailK146R) into A549 cells and/or treatment with 25 uM C646 for 2 hours (left) and/or treatment of 3 uM SAHA for 5 hours (right).
(§3) For immunoprecipitation, equal amounts of lysate and Co-IP buffer (40 mM HEPES, pH 7.4, 120 mM NaCl, 2 mM EDTA, 0.3% CHAPS (Sigma, 10810118001), 10 mM pyrophosphate (Sigma, 221368), 10 mM glycerophosphate (Sigma, G9422), 50 mM NaF, phosphatase and protease inhibitor mixture) were mixed. Cell lysates (1 μg protein) were incubated overnight at 4° C. on anti-FLAG® M2 Affinity Gel (Sigma, A2220) or anti-acetyl-lysine antibody coated agarose (ImmuneChem Pharmaceuticals, ICP0388). The immunoprecipitate was then washed three times in IP buffer, and the immunoprecipitated complex was dissolved and separated by boiling in IP buffer for 5 minutes.

[6] = test system: TFEB gene; test: Real-time PCR of TFEB gene; conditions: HBEC-KL; 10 mM acetate 24 hours or 3 uM SAHA 15 hours
Experimental: At 72 hours after siRNA transfection (post-transfection) and 12 to 24 hours after chemical treatment, total RNA was isolated with the RNeasy miniprep kit (QIAGEN, 74134). After synthesizing complementary DNA (cDNA) using the TOPscript·8 cDNA synthesis kit (Enzynomics, EZ0054), gRT-PCR was performed with TCPreal™ gRCR 2× PreMIX (SYBR Green with low ROX) (Enzynomics, RT501M). GAPDH and beta-actin were used for RNA normalization. qRT-PCR was performed with a StepOne Plus (Applied Biosystems) instrument.

[7] = test system: LC3; test: Autophagic flux (LC3 Western blot, mRFP-GFP-LC3 lysosomal delivery assay); conditions: HBEC-KL; 10 mM acetate 24 hours or 3 uM SAHA
Experimental: as §2, with “Representative GFP-LC3, RFP-LC3 and overlapping images are shown. In addition, red puncta (mRFP+/GFP−) and yellow puncta (mRFP+/GFP+) per cell were quantified and graphed (n=15 cells/treatment). Cells” for “Cells”

[8] = test system: TFEB; test: Western blot / immunoprecipitation-immunoblot of TFEB (acetylated, phosphorylated, total); conditions: HBEC-KL; for reduced TFEB protein level in the chloroquine (CQ) treatment condition: 50 uM CQ 24 hours with 10 mM acetate 24 hours or 3 uM SAHA 15 hours; for acetylated TFEB level / phosphorylated TFEB level / total TFEB protein level: 10 mM acetate 24 hours or 3 μM SAHA
Experimental: FIG. 11J illustrates a diagram of immunoblot results of the […] a control (left), and the immunoprecipitation-immunoblot result of TFEB acetylated HBEC-KL cells under the same conditions (right) is also shown,
as §2, §3

[9] = test system: acetylated Snail; test: Immunoprecipitation-immunoblot of acetylated Snail; conditions: HBEC-KL
Experimental: Cell lysates (1 μg protein) were incubated overnight at 4° C. on anti-FLAG® M2 Affinity Gel (Sigma, A2220) or anti-acetyl-lysine antibody coated agarose (ImmuneChem Pharmaceuticals, ICP0388). The immunoprecipitate was then washed three times in IP buffer, and the immunoprecipitated complex was dissolved and separated by boiling in IP buffer for 5 minutes.
For SDS-PAGE electrophoresis, the immunoprecipitated complex was transferred to a nitrocellulose membrane and the membrane was blocked and then incubated for 1 hour at room temperature with Primary antibody and secondary antibody (VeriBlot for IP Detection Reagent (HRP) (Abcam, #ab131366), and anti-mouse IgG tor IP (HRP) (Abeam, #ab131368)).
After washing 3 times, the membrane was incubated with the secondary antibody.

[10] = test system: HBEC-KL cell line; test: Matrigel invasion assay, HBEC-KL cell line
Experimental: as §1

[11] = test system: TFEB; test: Immunofluorescence of TFEB localization; conditions: HBEC-KL; 10 mM acetate 24 hours or 3 uM SAHA 5 hours
Experimental: Cells were seeded onto coated glass coverslips and maintained in ACL medium for 48 hours. After washing the cells three times with PBS. they were incubated in 3.7% paraformaldehyde for 10 minutes and fixed. Thereafter, the cells were washed three times with PBS and subjected to cell permeabilizaton in PBS containing 0.1% Triton X-100 for 10 minutes. After washing with PBS three times, the sample was blocked for 30 minutes at room temperature with PBS containing 0.1% Triton X-100 and 5% goat serum. Samples were incubated with primary antibody (1:150). followed by incubation with anti-rabbit/mouse Alexa Fluor 488/568 secondary antibody (Thermo Fisher Scientific, A-11001, 11004, 11008. 11011) and ProLong Gold Antifade Mountant with DAPI (Thermo Fisher Scientific, P36931), Images were taken with an Axio imager M2 microscope (Carl Zeiss, […]) equipped with a 63× oil objective and analyzed with ZEN version 3.0 software.

[12] = test system: phospho-RPS6 (p-S6); test: Western blot of phospho-RPS6 (p-S6); conditions: HBEC-KL; acetate or SAHA treatment
Experimental: as §2

[13] = test system: TFEB (CLEAR network); test: CLEAR motif-driven luciferase reporter assay; conditions: HBEC-KL
Experimental: To compare the TFEB reporter activity with other cell lines (HBEC30KT, HBEC-K, and HBEC-KL), the pGL4.70 5× CLEAR Rluc and pSt4.14 Fluc vectors were transiently co-transfected and normalized luciferase activity was measured in Dual-Measured by Luciferase® Reporter Assay System (Promega, E1910),

[14] = test system: SNAI1 gene; test: Real-time PCR of SNAI1 gene; conditions: HBEC-KL; 10 mM acetate, 24 hours
Experimental: After synthesizing complementary DNA (cDNA) using the TOPscript·8 cDNA synthesis kit (Enzynomics, EZ0054), gRT-PCR was performed with TCPreal™ gRCR 2× PreMIX (SYBR Green with low ROX) (Enzynomics, RT501M). GAPDH and beta-actin were used for RNA normalization. qRT-PCR was performed with a StepOne Plus (Applied Biosystems) instrument.

Row | Compound | TFEB mRNA level [6] | autophagy flux [7] | reduced TFEB protein level in the chloroquine (CQ) treatment condition [8] | acetylated TFEB level [8] | phosphorylated TFEB level [8] | total TFEB protein level [8] | level of nuclear-localized TFEB [11] | level of phospho-RPS6 (p-S6) [12] | other results
1 | C=CC(=O)N1CCN(c2nc(=O)n(-c3c(C)ccnc3C(C)C)c3nc(-c4c(O)cccc4F)c(F)cc23)[C@@H](C)C1 [AMG-510] | – | – | – | – | – | – | – | – | cell invasiveness [1]: increased; Snail expression level ([2]; in two of the three KL cell lines, AMG-510 1 uM, 48 hours): increased
2 | Cc1c[nH]c(-c2cnc(NCCNc3ccc(C#N)cn3)nc2-c2ccc(Cl)cc2Cl)n1 [CHIR99021] | – | – | – | – | – | – | – | – | expression levels of β-catenin under autophagy inhibition [3]: restored; levels of Snail protein under autophagy inhibition ([4]; CHIR99021 3 uM, 5 hours, in the presence of 50 uM CQ): did not restore
3 | O=C(CCCCCCC(=O)Nc1ccccc1)NO [SAHA, vorinostat] | no significant change | increased | partially restored | increased | increased | increased | increased | kept constant | K48 polyubiquitination of wild-type Snail ([5]; pFLAG-Snail WT): reduced; phosphorylation of wild-type Snail ([5]; pFLAG-Snail WT): reduce; phosphorylation and acetylation of K146R Snail ([5]; pFLAG-SnailK146R): did not affect; level of acetylated Snail ([9]; 3 uM SAHA, 15 hours): increased; degree of matrigel-infiltration ([10]; HBEC-KL, SAHA): increased; Snail reduction by chloroquine (CQ), upon SAHA treatment ([4]; 3 uM SAHA and 50 uM CQ, 24 hours): restored; CLEAR activity under FK506 treatment ([13]; 1 uM FK506 with 10 mM acetate 24 hours or 3 uM SAHA 15 hours): increased; CLEAR activity ([13]; 10 mM acetate 24 hours or 3 uM SAHA 5 hours): increased
4 | CC(=O)[O-].[Na+] [acetate, sodium acetate] | no significant change | increased | partially restored | increased | increased | increased | increased | kept constant | Snail mRNA expression levels [14]: no effect; level of acetylated Snail ([9]; 10 mM acetate, 24 hours): increased; Snail protein expression levels ([2]; HBEC-KL, acetate, 24 hours): increased; invasiveness ([10]; KL cells (HBEC-KL), 10 mM acetate, 24 hours): increased
